Experimental data: ChEMBL document CHEMBL1269000, “Synthesis and biological evaluation of [D-lysine]8cyclosporin A analogs as potential anti-HCV agents” (Bioorg Med Chem Lett, 2010)

Key:
Jurkat = test: Immunosuppressive activity against human Jurkat cells assessed as inhibition of phytohemagglutinin-M/phorbol myristate acetate-induced IL2 production; type: cell-based
Hepatitis C virus = test: Antiviral activity against HCV after 72 hrs by stable luciferase reporter gene assay; type: functional, organism-based, Hepacivirus hominis
[1] = Cytotoxicity against human HuH7 cells assessed as release of lactate dehydrogenase; type: cell-based, Huh-7
[2] = target: Peptidyl-prolyl cis-trans isomerase B (Homo sapiens, UniProt P23284); test: Binding affinity to cyclophilin B by ELISA
Chain of Peptidyl-prolyl cis-trans isomerase B (P23284 whole entry): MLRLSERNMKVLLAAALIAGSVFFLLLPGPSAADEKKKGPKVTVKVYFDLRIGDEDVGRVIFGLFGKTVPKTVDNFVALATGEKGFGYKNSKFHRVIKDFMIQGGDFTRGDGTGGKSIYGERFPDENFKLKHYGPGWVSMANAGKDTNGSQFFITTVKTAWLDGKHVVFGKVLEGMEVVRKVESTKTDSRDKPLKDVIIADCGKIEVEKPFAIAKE

[3] = target: Peptidyl-prolyl cis-trans isomerase A (Homo sapiens, UniProt P62937); test: Binding affinity to cyclophilin A by ELISA
Chain of Peptidyl-prolyl cis-trans isomerase A (P62937 whole entry): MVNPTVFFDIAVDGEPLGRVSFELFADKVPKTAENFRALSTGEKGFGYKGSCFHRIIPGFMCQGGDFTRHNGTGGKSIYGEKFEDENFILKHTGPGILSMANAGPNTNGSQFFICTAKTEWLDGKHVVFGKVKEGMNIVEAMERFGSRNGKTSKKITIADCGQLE

Compound `C/C=C/C[C@@H](C)[C@@H](O)[C@H]1C(=O)N[C@@H](CC)C(=O)N(C)CC(=O)N(C)[C@@H](CC(C)C)C(=O)N[C@@H](C(C)C)C(=O)N(C)[C@@H](CC(C)C)C(=O)N[C@@H](C)C(=O)N[C@H](CCCCN)C(=O)N(C)[C@@H](CC(C)C)C(=O)N(C)[C@@H](CC(C)C)C(=O)N(C)[C@@H](C(C)C)C(=O)N1C` has an EC50 (Jurkat) of 94 nM, an EC50 (Hepatitis C virus) of 1000 nM and an EC90 (Hepatitis C virus) of 2850 nM. For the same compound, the IC50 ([1]; Homo sapiens, Huh-7) was > 10000 nM, the IC90 ([1]; human, HuH7 cells) was > 10000 nM and the IC50 [2] was 12.7 nM. It also gave an IC50 [3] of 11.1 nM.
